Assay results published in US8450266B2 (Ipsen Pharma S.A.S., priority 2008, dated 2013).
Where a SMILES comes first, the peptide text is derived from it. [ ]: non-standard residue; d: D form. The star is where a group is joined. Ac6c = NC1(C(=O)O)CCCCC1; X1 = CCCN1C(=O)CC(*)C1=O

Experiments:
[1] = Human plasma half-life assay (LC-MS); type: in vitro ADME; settings: incubated at 37° C., read-out: Human Plasma T½ (converted)
Experimental: (§1) B. Human and Rat Plasma Half-Life Assay
(§2) 50 μl, was removed at various times, like at 0, 1, 2, 3, 4, 8, 24, 32, 48, 56, 72 hours, mixed with 5 μL formic acid and 150 μL acetonitrile in a microcentrifuge tube, vertexed, and centrifuged for 10 minutes at 10K rpm. The supernatant was transferred to an injection vial and analyzed by LC-MS. The LC-MS system consisted of an API4000 mass spectrometer with an ESI probe. Positive ion mode and full scan detection were used. HPLC separation was carried out on a Luna 3μ C8 (2), 2×30 mm column with a gradient from 90% A to 90% B in 10 minutes at a flow rate of 0.3 ml/min. Buffer A was 1% formic acid in water and buffer B was 1% formic acid acetonitrile.

[2] = Rat plasma half-life assay (LC-MS); type: in vitro ADME; settings: incubated at 37° C., read-out: Rat Plasma T½ (converted)
Experimental: as §1, §2

Compound	half-life at 0.1 mg/ml [1] [h]	half-life at 0.1 mg/ml [2] [h]	half-life at 0.1 mg/mL [1] [h]	half-life at 0.1 mg/mL [2] [h]
CC[C@H](C)[C@H](NC(=O)[C@H](CO)NC(=O)[C@H](Cc1ccc(O)cc1)NC(=O)[C@H](CC(=O)O)NC(=O)[C@H](CO)NC(=O)C1(NC(C)=O)CCCCC1)C(=O)N[C@@H](C)C(=O)N[C@@H](CCSC)C(=O)N[C@@H](CC(=O)O)C(=O)N[C@@H](CCCCN)C(=O)N[C@H](C(=O)N[C@@H](Cc1c[nH]cn1)C(=O)N[C@@H](CCC(N)=O)C(=O)N[C@@H](CCC(N)=O)C(=O)N[C@@H](CC(=O)O)C(=O)N[C@@H](Cc1ccccc1)C(=O)N[C@H](C(=O)N[C@@H](CC(N)=O)C(=O)N[C@@H](Cc1c[nH]c2ccccc12)C(=O)N[C@@H](CC(C)C)C(=O)N[C@@H](CC(C)C)C(=O)N[C@@H](C)C(=O)N[C@@H](CCC(N)=O)C(=O)N[C@@H](CCCCN)C(=O)NCC(=O)N[C@@H](CCCCN)C(=O)N[C@@H](CCCCN)C(=O)N[C@@H](CC(N)=O)C(=O)N[C@@H](CC(=O)O)C(=O)N[C@@H](Cc1c[nH]c2ccccc12)C(=O)N[C@@H](CCCCN)C(=O)N[C@@H](Cc1c[nH]cn1)C(=O)N[C@@H](CC(N)=O)C(=O)N[C@H](C(=O)N[C@H](C(=O)N[C@@H](CCC(N)=O)C(=O)O)[C@@H](C)O)[C@@H](C)CC)C(C)C)[C@@H](C)CC [Example 1, (Ac-A6c^7)hGIP(7-42)-OH]	> 72	11	–	–
CCCN1C(=O)CC(SC[C@H](NC(=O)[C@H](CC(N)=O)NC(=O)[C@H](Cc2c[nH]cn2)NC(=O)[C@H](CCCCN)NC(=O)[C@H](Cc2c[nH]c3ccccc23)NC(=O)[C@H](CC(=O)O)NC(=O)[C@H](CC(N)=O)NC(=O)[C@H](CCCCN)NC(=O)[C@H](CCCCN)NC(=O)CNC(=O)[C@H](CCCCN)NC(=O)[C@H](CCC(N)=O)NC(=O)[C@H](C)NC(=O)[C@H](CC(C)C)NC(=O)[C@H](CC(C)C)NC(=O)[C@H](Cc2c[nH]c3ccccc23)NC(=O)[C@H](CC(N)=O)NC(=O)[C@@H](NC(=O)[C@H](Cc2ccccc2)NC(=O)[C@H](CC(=O)O)NC(=O)[C@H](CCC(N)=O)NC(=O)[C@H](CCC(N)=O)NC(=O)[C@H](Cc2c[nH]cn2)NC(=O)[C@@H](NC(=O)[C@H](CCCCN)NC(=O)[C@H](CC(=O)O)NC(=O)[C@H](CCSC)NC(=O)[C@H](C)NC(=O)[C@@H](NC(=O)[C@H](CO)NC(=O)[C@H](Cc2ccc(O)cc2)NC(=O)[C@H](CC(=O)O)NC(=O)[C@H](CO)NC(=O)C2(NC(C)=O)CCCCC2)[C@@H](C)CC)[C@@H](C)CC)C(C)C)C(=O)N[C@H](C(=O)N[C@@H](CCC(N)=O)C(=O)O)[C@@H](C)O)C1=O (some centres unmarked) [Example 2, [Ac-A6c^7, Cys(Psu)^40]hGIP(7-42)-OH] (Ac-[Ac6c]SDYSIAMDKIHQQDFVNWLLAQKGKKNDWKHNC(X1)TQ-OH)	–	–	13.7	7.2
CCCN1C(=O)CC(SC[C@H](NC(=O)[C@H](Cc2c[nH]cn2)NC(=O)[C@H](CCCCN)NC(=O)[C@H](Cc2c[nH]c3ccccc23)NC(=O)[C@H](CC(=O)O)NC(=O)[C@H](CC(N)=O)NC(=O)[C@H](CCCCN)NC(=O)[C@H](CCCCN)NC(=O)CNC(=O)[C@H](CCCCN)NC(=O)[C@H](CCC(N)=O)NC(=O)[C@H](C)NC(=O)[C@H](CC(C)C)NC(=O)[C@H](CC(C)C)NC(=O)[C@H](Cc2c[nH]c3ccccc23)NC(=O)[C@H](CC(N)=O)NC(=O)[C@@H](NC(=O)[C@H](Cc2ccccc2)NC(=O)[C@H](CC(=O)O)NC(=O)[C@H](CCC(N)=O)NC(=O)[C@H](CCC(N)=O)NC(=O)[C@H](Cc2c[nH]cn2)NC(=O)[C@@H](NC(=O)[C@H](CCCCN)NC(=O)[C@H](CC(=O)O)NC(=O)[C@H](CCSC)NC(=O)[C@H](C)NC(=O)[C@@H](NC(=O)[C@H](CO)NC(=O)[C@H](Cc2ccc(O)cc2)NC(=O)[C@H](CC(=O)O)NC(=O)[C@H](CO)NC(=O)C2(NC(C)=O)CCCCC2)[C@@H](C)CC)[C@@H](C)CC)C(C)C)C(=O)N[C@H](C(=O)N[C@H](C(=O)N[C@@H](CCC(N)=O)C(=O)O)[C@@H](C)O)[C@@H](C)CC)C1=O (some centres unmarked) [Example 3, [Ac-A6c^7, Cys(Psu)^39]hGIP(7-42)-OH] (Ac-[Ac6c]SDYSIAMDKIHQQDFVNWLLAQKGKKNDWKHC(X1)ITQ-OH)	–	–	16.4	5.6
CCCN1C(=O)CC(SC[C@H](NC(=O)[C@H](CCCCN)NC(=O)[C@H](Cc2c[nH]c3ccccc23)NC(=O)[C@H](CC(=O)O)NC(=O)[C@H](CC(N)=O)NC(=O)[C@H](CCCCN)NC(=O)[C@H](CCCCN)NC(=O)CNC(=O)[C@H](CCCCN)NC(=O)[C@H](CCC(N)=O)NC(=O)[C@H](C)NC(=O)[C@H](CC(C)C)NC(=O)[C@H](CC(C)C)NC(=O)[C@H](Cc2c[nH]c3ccccc23)NC(=O)[C@H](CC(N)=O)NC(=O)[C@@H](NC(=O)[C@H](Cc2ccccc2)NC(=O)[C@H](CC(=O)O)NC(=O)[C@H](CCC(N)=O)NC(=O)[C@H](CCC(N)=O)NC(=O)[C@H](Cc2c[nH]cn2)NC(=O)[C@@H](NC(=O)[C@H](CCCCN)NC(=O)[C@H](CC(=O)O)NC(=O)[C@H](CCSC)NC(=O)[C@H](C)NC(=O)[C@@H](NC(=O)[C@H](CO)NC(=O)[C@H](Cc2ccc(O)cc2)NC(=O)[C@H](CC(=O)O)NC(=O)[C@H](CO)NC(=O)C2(NC(C)=O)CCCCC2)[C@@H](C)CC)[C@@H](C)CC)C(C)C)C(=O)N[C@@H](CC(N)=O)C(=O)N[C@H](C(=O)N[C@H](C(=O)N[C@@H](CCC(N)=O)C(=O)O)[C@@H](C)O)[C@@H](C)CC)C1=O (some centres unmarked) [Example 4, [Ac-A6c^7, Cys(Psu)^38]hGIP(7-42)-OH] (Ac-[Ac6c]SDYSIAMDKIHQQDFVNWLLAQKGKKNDWKC(X1)NITQ-OH)	–	–	10	6
CCCN1C(=O)CC(SC[C@H](NC(=O)[C@H](CC(=O)O)NC(=O)[C@H](CC(N)=O)NC(=O)[C@H](CCCCN)NC(=O)[C@H](CCCCN)NC(=O)CNC(=O)[C@H](CCCCN)NC(=O)[C@H](CCC(N)=O)NC(=O)[C@H](C)NC(=O)[C@H](CC(C)C)NC(=O)[C@H](CC(C)C)NC(=O)[C@H](Cc2c[nH]c3ccccc23)NC(=O)[C@H](CC(N)=O)NC(=O)[C@@H](NC(=O)[C@H](Cc2ccccc2)NC(=O)[C@H](CC(=O)O)NC(=O)[C@H](CCC(N)=O)NC(=O)[C@H](CCC(N)=O)NC(=O)[C@H](Cc2c[nH]cn2)NC(=O)[C@@H](NC(=O)[C@H](CCCCN)NC(=O)[C@H](CC(=O)O)NC(=O)[C@H](CCSC)NC(=O)[C@H](C)NC(=O)[C@@H](NC(=O)[C@H](CO)NC(=O)[C@H](Cc2ccc(O)cc2)NC(=O)[C@H](CC(=O)O)NC(=O)[C@H](CO)NC(=O)C2(NC(C)=O)CCCCC2)[C@@H](C)CC)[C@@H](C)CC)C(C)C)C(=O)N[C@@H](CCCCN)C(=O)N[C@@H](Cc2c[nH]cn2)C(=O)N[C@@H](CC(N)=O)C(=O)N[C@H](C(=O)N[C@H](C(=O)N[C@@H](CCC(N)=O)C(=O)O)[C@@H](C)O)[C@@H](C)CC)C1=O (some centres unmarked) [Example 5, [Ac-A6c^7, Cys(Psu)^36]hGIP(7-42)-OH] (Ac-[Ac6c]SDYSIAMDKIHQQDFVNWLLAQKGKKNDC(X1)KHNITQ-OH)	–	–	7.8	8.5
CCCN1C(=O)CC(SC[C@H](NC(=O)[C@H](CC(N)=O)NC(=O)[C@H](CCCCN)NC(=O)[C@H](CCCCN)NC(=O)CNC(=O)[C@H](CCCCN)NC(=O)[C@H](CCC(N)=O)NC(=O)[C@H](C)NC(=O)[C@H](CC(C)C)NC(=O)[C@H](CC(C)C)NC(=O)[C@H](Cc2c[nH]c3ccccc23)NC(=O)[C@H](CC(N)=O)NC(=O)[C@@H](NC(=O)[C@H](Cc2ccccc2)NC(=O)[C@H](CC(=O)O)NC(=O)[C@H](CCC(N)=O)NC(=O)[C@H](CCC(N)=O)NC(=O)[C@H](Cc2c[nH]cn2)NC(=O)[C@@H](NC(=O)[C@H](CCCCN)NC(=O)[C@H](CC(=O)O)NC(=O)[C@H](CCSC)NC(=O)[C@H](C)NC(=O)[C@@H](NC(=O)[C@H](CO)NC(=O)[C@H](Cc2ccc(O)cc2)NC(=O)[C@H](CC(=O)O)NC(=O)[C@H](CO)NC(=O)C2(NC(C)=O)CCCCC2)[C@@H](C)CC)[C@@H](C)CC)C(C)C)C(=O)N[C@@H](Cc2c[nH]c3ccccc23)C(=O)N[C@@H](CCCCN)C(=O)N[C@@H](Cc2c[nH]cn2)C(=O)N[C@@H](CC(N)=O)C(=O)N[C@H](C(=O)N[C@H](C(=O)N[C@@H](CCC(N)=O)C(=O)O)[C@@H](C)O)[C@@H](C)CC)C1=O (some centres unmarked) [Example 6, [Ac-A6c^7, Cys(Psu)^35]hGIP(7-42)-OH] (Ac-[Ac6c]SDYSIAMDKIHQQDFVNWLLAQKGKKNC(X1)WKHNITQ-OH)	–	–	8	3.2
CCCN1C(=O)CC(SC[C@H](NC(=O)[C@H](CCCCN)NC(=O)[C@H](CCCCN)NC(=O)CNC(=O)[C@H](CCCCN)NC(=O)[C@H](CCC(N)=O)NC(=O)[C@H](C)NC(=O)[C@H](CC(C)C)NC(=O)[C@H](CC(C)C)NC(=O)[C@H](Cc2c[nH]c3ccccc23)NC(=O)[C@H](CC(N)=O)NC(=O)[C@@H](NC(=O)[C@H](Cc2ccccc2)NC(=O)[C@H](CC(=O)O)NC(=O)[C@H](CCC(N)=O)NC(=O)[C@H](CCC(N)=O)NC(=O)[C@H](Cc2c[nH]cn2)NC(=O)[C@@H](NC(=O)[C@H](CCCCN)NC(=O)[C@H](CC(=O)O)NC(=O)[C@H](CCSC)NC(=O)[C@H](C)NC(=O)[C@@H](NC(=O)[C@H](CO)NC(=O)[C@H](Cc2ccc(O)cc2)NC(=O)[C@H](CC(=O)O)NC(=O)[C@H](CO)NC(=O)C2(NC(C)=O)CCCCC2)[C@@H](C)CC)[C@@H](C)CC)C(C)C)C(=O)N[C@@H](CC(=O)O)C(=O)N[C@@H](Cc2c[nH]c3ccccc23)C(=O)N[C@@H](CCCCN)C(=O)N[C@@H](Cc2c[nH]cn2)C(=O)N[C@@H](CC(N)=O)C(=O)N[C@H](C(=O)N[C@H](C(=O)N[C@@H](CCC(N)=O)C(=O)O)[C@@H](C)O)[C@@H](C)CC)C1=O (some centres unmarked) [Example 7, [Ac-A6c^7, Cys(Psu)^34]hGIP(7-42)-OH] (Ac-[Ac6c]SDYSIAMDKIHQQDFVNWLLAQKGKKC(X1)DWKHNITQ-OH)	–	–	7.9	1.6
